Consider 19 molecules from US8901118B2, “Compounds and methods for kinase modulation, and indications therefor” (Plexxikon Inc., priority 2010, dated 2014).

Molecules are shown by their SMILES.

Test [1] deals with CYP3A4(BQ) (Homo sapiens, UniProt P08684). Nature of the test: CYP3A4(BQ) inhibition. To be noted: CYP3A4, substrate BQ; read-out: Cyp IC50 3A4(BQ). The test is classed as in vitro ADME. The protocol:
(§1) CYP (Cytochrome P450) enzymes are the major drug metabolizing enzymes present in the liver. The inhibition of CYP enzyme activity (IC50) for each of CYP1A2, CYP2C19, CYP2C9, CYP2D6, CYP3A4(BFC) and CYP3A4(BQ) is determined for compounds, where inhibition of metabolism of a known substrate leads to a decrease in the fluorescence of the metabolized product. The fluorescence of the product is monitored as a function of compound concentration. Compounds are dissolved in DMSO to a concentration of 100 mM. These are diluted 1 μL into 82 μL of acetonitrile. An 11 μL aliquot of this solution is then added to 204 μL of cofactor mix (1.3% NADPH Regeneration system Solution A, 1.04% NADPH Regeneration system Solution B from BD Biosciences, 5% acetonitrile and 0.05% DMSO). These are then serially diluted 1:1 (160 μL to 160 μL co-factor mix) for a total of 10 points. A 10 μL aliquot of this final mixture is dispensed into 384 well assay plates and incubated for 10 minutes at 37° C. […] Assay plates are incubated at 37° C. (CYP1A2-15 min; CYP2C9-45 min; CYP2C19, 2D6 and 3A4-30 min) and read in a Tecan Safire 2 plate reader (CYP1A2, 2C19 and 3A4 409 ex/460 em; CYP2C9 and 2D6 409 ex/530 em). The signal versus compound concentration is used to determine the IC50. The enzymes and substrates for this assay are obtained from BD Biosciences.

For test [2], the target named is CYP2D6 (Homo sapiens, UniProt P10635). Nature of the test: CYP2D6 inhibition (fluorescent substrate AMMC). It is filed as in vitro ADME. To be noted: read-out: Cyp IC50 2D6. The procedure:
as §1

Test [3] addresses c-Kit kinase (Homo sapiens, UniProt P10721). Nature of the test: c-Kit kinase biochemical activity assay (AlphaScreen, biotin-(E4Y)10 phosphorylation). To be noted: 100 μM ATP; read-out: Biochemical Inhibition IC50 Kit. The procedure: Assays for biochemical and cell based activity are known in the art, for example, U.S. Patent Application Publication Number 2009/0076046, the disclosure of which is hereby incorporated by reference as it relates to such assays. For example, in one assay the biochemical activity IC50 values are determined with respect to inhibition of c-Kit kinase activity, where inhibition of phosphorylation of a peptide substrate is measured as a function of compound concentration. Compounds to be tested are dissolved in DMSO to a concentration of 20 mM. These are diluted 30 μL into 120 μL of DMSO (4 mM) and 1 μL is added to an assay plate. These are then serially diluted […] (50 μL to 100 μL DMSO) for a total of 8 points. Plates are prepared such that each kinase reaction is 20 μL in 1× kinase buffer (25 mM HEPES, pH 7.5, 2 mM MgCl2, 2 mM MnCl2, 0.01% Tween-20, 1 mM DTT, 0.01% BSA), 5% DMSO and 100 μM ATP. Substrate is 30 nM biotin-(E4Y) 10 (Millipore). C-kit kinase (obtained from Millipore (#14-559) or is prepared as described in U.S. Patent Application Publication Number 2009/0076046, the disclosure of which is hereby incorporated by reference as it relates to this assay) is at 0.75 ng per sample. After incubation of the kinase reaction for 1 hour at room temperature, 5 μL of donor beads (Streptavidin coated beads (Perkin Elmer Life Science) final concentration 10 μg/mL) in stop buffer (25 mM Hepes pH 7.5, 100 mM EDTA, 0.01% BSA) is added, the sample is mixed and incubated for 20 minutes at room temperature before adding 5 μL of acceptor beads (PY20 coated beads (Perkin Elmer Life Science) final concentration 10 μg/mL) in stop buffer. The samples are incubated for 60 minutes at room temperature and the signal per well is read on Envision reader. Phosphorylated substrate results in binding of the PY20 antibody and association of the donor and acceptor beads such that signal correlates with kinase activity. The signal vs. compound concentration is used to determine the IC50.

Chain of CYP3A4(BQ) (P08684 whole entry): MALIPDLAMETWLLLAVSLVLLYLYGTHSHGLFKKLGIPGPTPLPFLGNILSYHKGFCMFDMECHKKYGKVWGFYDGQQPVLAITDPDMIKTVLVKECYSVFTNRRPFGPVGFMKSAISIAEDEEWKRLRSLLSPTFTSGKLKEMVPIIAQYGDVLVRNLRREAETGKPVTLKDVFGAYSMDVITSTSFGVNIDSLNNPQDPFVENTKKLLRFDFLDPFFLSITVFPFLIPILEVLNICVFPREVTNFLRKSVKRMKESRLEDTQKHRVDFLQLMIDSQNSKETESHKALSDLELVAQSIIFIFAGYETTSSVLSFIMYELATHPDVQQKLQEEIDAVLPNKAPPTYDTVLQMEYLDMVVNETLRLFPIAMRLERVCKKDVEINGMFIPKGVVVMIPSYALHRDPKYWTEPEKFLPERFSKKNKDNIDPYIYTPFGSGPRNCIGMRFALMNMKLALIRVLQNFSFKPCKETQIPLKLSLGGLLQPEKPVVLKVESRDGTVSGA
Chain of CYP2D6 (P10635 whole entry): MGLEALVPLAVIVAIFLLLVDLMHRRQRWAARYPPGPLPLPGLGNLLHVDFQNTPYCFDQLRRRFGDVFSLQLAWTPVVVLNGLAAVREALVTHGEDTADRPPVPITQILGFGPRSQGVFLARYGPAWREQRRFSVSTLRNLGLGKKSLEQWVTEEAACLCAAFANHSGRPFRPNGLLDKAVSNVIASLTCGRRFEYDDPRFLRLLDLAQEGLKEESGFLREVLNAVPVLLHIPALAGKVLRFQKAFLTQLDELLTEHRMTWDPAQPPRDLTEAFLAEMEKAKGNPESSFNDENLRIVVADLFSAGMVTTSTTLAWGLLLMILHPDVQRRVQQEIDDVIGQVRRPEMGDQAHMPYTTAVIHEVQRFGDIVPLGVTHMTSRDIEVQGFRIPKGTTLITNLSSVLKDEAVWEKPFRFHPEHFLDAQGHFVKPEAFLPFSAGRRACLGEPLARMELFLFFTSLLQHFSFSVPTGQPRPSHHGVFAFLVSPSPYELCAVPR
Chain of c-Kit kinase (P10721 26-976): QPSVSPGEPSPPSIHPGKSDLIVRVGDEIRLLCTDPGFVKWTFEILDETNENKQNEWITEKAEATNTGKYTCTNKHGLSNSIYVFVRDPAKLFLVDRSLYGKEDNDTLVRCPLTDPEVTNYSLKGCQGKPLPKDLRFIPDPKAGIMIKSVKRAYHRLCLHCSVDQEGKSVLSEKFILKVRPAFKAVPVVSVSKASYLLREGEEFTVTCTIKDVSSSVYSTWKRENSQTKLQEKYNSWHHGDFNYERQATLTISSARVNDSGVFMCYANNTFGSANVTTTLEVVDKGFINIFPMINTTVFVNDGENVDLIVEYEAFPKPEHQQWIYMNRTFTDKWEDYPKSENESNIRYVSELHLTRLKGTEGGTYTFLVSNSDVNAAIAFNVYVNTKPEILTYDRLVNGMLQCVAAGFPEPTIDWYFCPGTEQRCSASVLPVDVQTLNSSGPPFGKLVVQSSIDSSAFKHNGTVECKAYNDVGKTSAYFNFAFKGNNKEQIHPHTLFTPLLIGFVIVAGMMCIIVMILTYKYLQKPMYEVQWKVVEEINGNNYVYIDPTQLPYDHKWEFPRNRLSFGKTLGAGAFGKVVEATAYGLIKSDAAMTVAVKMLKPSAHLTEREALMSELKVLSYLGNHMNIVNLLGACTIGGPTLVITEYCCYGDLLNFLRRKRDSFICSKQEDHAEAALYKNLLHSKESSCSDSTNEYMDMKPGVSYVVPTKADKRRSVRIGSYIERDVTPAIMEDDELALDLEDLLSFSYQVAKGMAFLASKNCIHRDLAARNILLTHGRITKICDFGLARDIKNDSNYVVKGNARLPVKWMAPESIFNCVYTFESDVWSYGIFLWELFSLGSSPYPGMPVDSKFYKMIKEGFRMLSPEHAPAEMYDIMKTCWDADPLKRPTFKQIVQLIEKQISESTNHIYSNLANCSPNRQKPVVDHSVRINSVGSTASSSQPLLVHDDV

In general, IC50 refers to the concentration that inhibits the measured activity by half. Take `COc1ccc(Nc2ccc(C(=O)c3c[nH]c4ncnc(NCc5ccc(C(F)(F)F)nc5)c34)c(F)n2)cn1` [Compound P-4071, [2-fluoro-6-[(6-methoxy-3-pyridyl)amino]-3-pyridyl]-[4-[[6-(trifluoromethyl)-3-pyridyl]methylamino]-7H-pyrrolo[2,3-d]pyrimidin-5-yl]methanone]: the values for the 50% inhibitory concentration (IC50) in test [1], in test [2] and in test [3] were above 10 µM, above 10 µM and above 1 µM, respectively.

As for `CCNc1ncnc2[nH]cc(C(=O)c3ccc(Nc4ccc(OC)nc4)nc3F)c12` [Compound P-4081, [4-(ethylamino)-7H-pyrrolo[2,3-d]pyrimidin-5-yl]-[2-fluoro-6-[(6-methoxy-3-pyridyl)amino]-3-pyridyl]methanone], the IC50 in test [1] is above 10 µM; in test [2], above 10 µM; in test [3] it was below 0.1 µM.

Consider `CNc1ncnc2[nH]cc(C(=O)c3ccc(Nc4ccc(OC)nc4)nc3OC)c12` [Compound P-4085, [2-methoxy-6-[(6-methoxy-3-pyridyl)amino]-3-pyridyl]-[4-(methylamino)-7H-pyrrolo[2,3-d]pyrimidin-5-yl]methanone], for which the IC50 in test [3] was below 1 µM.

Take `CCc1ccc(Nc2ccc(C(=O)c3c[nH]c4ncnc(N)c34)c(F)n2)cn1` [Compound P-4065, (4-amino-7H-pyrrolo[2,3-d]pyrimidin-5-yl)-[6-[(6-ethyl-3-pyridyl)amino]-2-fluoro-3-pyridyl]methanone]: the half-maximal inhibitory concentration (IC50) is above 10 µM in test [1], above 10 µM in test [2] and below 0.1 µM in test [3].

On to `CCc1ccc(Nc2ccc(C(=O)c3c[nH]c4ncnc(NC(C)C)c34)c(F)n2)cn1` [Compound P-4117, [6-[(6-ethyl-3-pyridyl)amino]-2-fluoro-3-pyridyl]-[4-(isopropylamino)-7H-pyrrolo[2,3-d]pyrimidin-5-yl]methanone], for which the figures for the IC50 in test [1], in test [2] and in test [3] were above 10 µM, above 10 µM and below 0.1 µM, respectively.

With `CCCCNc1ncnc2[nH]cc(C(=O)c3ccc(Nc4ccc(OC)nc4)nc3F)c12` [Compound P-4080, [4-(butylamino)-7H-pyrrolo[2,3-d]pyrimidin-5-yl]-[2-fluoro-6-[(6-methoxy-3-pyridyl)amino]-3-pyridyl]methanone], the IC50 in test [1] is above 10 µM; in test [2], above 10 µM; in test [3], below 1 µM.

Consider `CNc1ncnc2[nH]cc(C(=O)c3ccc(NC4CCC(F)(F)CC4)nc3F)c12` [Compound P-4063, [6-[(4,4-difluorocyclohexyl)amino]-2-fluoro-3-pyridyl]-[4-(methylamino)-7H-pyrrolo[2,3-d]pyrimidin-5-yl]methanone], for which the concentration for half-maximal inhibition (IC50) in test [1] was above 10 µM; in test [2], above 10 µM; in test [3], below 1 µM.

`Cc1ccc(Nc2ccc(C(=O)c3c[nH]c4ncnc(NCC5CC5)c34)c(F)n2)cn1` [Compound P-4113, [4-(cyclopropylmethylamino)-7H-pyrrolo[2,3-d]pyrimidin-5-yl]-[2-fluoro-6-[(6-methyl-3-pyridyl)amino]-3-pyridyl]methanone]: the IC50 in test [1] was above 10 µM; in test [2], above 10 µM; in test [3], below 0.1 µM.

For the molecule `COc1ccc(Nc2ccc(C(=O)c3c[nH]c4ncnc(NC5CCC(F)(F)CC5)c34)c(F)n2)cn1` [Compound P-4056, [4-[(4,4-difluorocyclohexyl)amino]-7H-pyrrolo[2,3-d]pyrimidin-5-yl]-[2-fluoro-6-[(6-methoxy-3-pyridyl)amino]-3-pyridyl]methanone], the concentration for half-maximal inhibition (IC50) was above 10 µM in test [1], above 10 µM in test [2] and below 0.1 µM in test [3].

As to `CCCNc1ncnc2[nH]cc(C(=O)c3ccc(Nc4ccc(OC)nc4)nc3F)c12` [Compound P-4068, [2-fluoro-6-[(6-methoxy-3-pyridyl)amino]-3-pyridyl]-[4-(propylamino)-7H-pyrrolo[2,3-d]pyrimidin-5-yl]methanone], the half-inhibitory concentration (IC50) in test [1] is above 10 µM; in test [2], above 10 µM; in test [3] it was below 0.1 µM.

Take `O=C(c1ccc(NC2CCC(F)(F)CC2)nc1Cl)c1c[nH]c2ncnc(NCC(F)(F)F)c12` [Compound P-4057, [2-chloro-6-[(4,4-difluorocyclohexyl)amino]-3-pyridyl]-[4-(2,2,2-trifluoroethylamino)-7H-pyrrolo[2,3-d]pyrimidin-5-yl]methanone]: the IC50 was above 10 µM in test [1], above 10 µM in test [2] and above 1 µM in test [3].

With `COCCCNc1ncnc2[nH]cc(C(=O)c3ccc(Nc4ccc(OC)nc4)nc3F)c12` [Compound P-4079, [2-fluoro-6-[(6-methoxy-3-pyridyl)amino]-3-pyridyl]-[4-(3-methoxypropylamino)-7H-pyrrolo[2,3-d]pyrimidin-5-yl]methanone], the IC50 in test [1] is above 10 µM; in test [2], above 10 µM; in test [3], below 0.1 µM.

As for `CNc1ncnc2[nH]cc(C(=O)c3ccc(NC4CCCCC4)nc3F)c12` [Compound P-4102, [6-(cyclohexylamino)-2-fluoro-3-pyridyl]-[4-(methylamino)-7H-pyrrolo[2,3-d]pyrimidin-5-yl]methanone], the IC50 is above 10 µM in test [1], below 5 µM in test [2] and below 1 µM in test [3].

Regarding `COc1ccc(Nc2ccc(C(=O)c3c[nH]c4ncnc(NC5CC5)c34)c(F)n2)cn1` [Compound P-4126, [4-(cyclopropylamino)-7H-pyrrolo[2,3-d]pyrimidin-5-yl]-[2-fluoro-6-[(6-methoxy-3-pyridyl)amino]-3-pyridyl]methanone], the concentration for half-maximal inhibition (IC50) is 5 to 10 µM in test [1], above 10 µM in test [2] and below 0.1 µM in test [3].

As to `CCc1ccc(Nc2ccc(C(=O)c3c[nH]c4ncnc(NC5CCOCC5)c34)c(F)n2)cn1` [Compound P-4116, [6-[(6-ethyl-3-pyridyl)amino]-2-fluoro-3-pyridyl]-[4-(tetrahydropyran-4-ylamino)-7H-pyrrolo[2,3-d]pyrimidin-5-yl]methanone], the IC50 in test [1] was above 10 µM; in test [2], above 10 µM; in test [3], below 0.1 µM.

As to `CCc1ccc(Nc2ccc(C(=O)c3c[nH]c4ncnc(Nc5ccc(C)nc5)c34)c(F)n2)cn1` [Compound P-4086, [6-[(6-ethyl-3-pyridyl)amino]-2-fluoro-3-pyridyl]-[4-[(6-methyl-3-pyridyl)amino]-7H-pyrrolo[2,3-d]pyrimidin-5-yl]methanone], in test [3], the half-maximal inhibitory concentration (IC50) was below 1 µM.

With `Clc1cnc2[nH]cc(Cc3cnc(Nc4ccccc4Cl)nc3)c2c1` [Compound P-3015, (2-Chloro-phenyl)-[5-(5-chloro-1H-pyrrolo[2,3-b]pyridin-3-ylmethyl)-pyrimidin-2-yl]-amine], in test [3], the half-inhibitory concentration (IC50) is below 1 µM.

As to `CC1CCC(Nc2ncc(Cc3c[nH]c4ncc(Cl)cc34)cn2)CC1` (centres unmarked) [Compound P-3009, [5-(5-Chloro-1H-pyrrolo[2,3-b]pyridin-3-ylmethyl)-pyrimidin-2-yl]-(4-methyl-cyclohexyl)-amine], the IC50 in test [2] is above 10 µM.

Turning to `Fc1ccccc1Nc1ncc(Cc2c[nH]c3ncc(Cl)cc23)cn1` [Compound P-3014, [5-(5-Chloro-1H-pyrrolo[2,3-b]pyridin-3-ylmethyl)-pyrimidin-2-yl]-(2-fluoro-phenyl)-amine], the IC50 in test [3] was below 0.1 µM.
